Laboratory results: US20150045551A1, “FUSED AZOLE DERIVATIVE” (TAISHO PHARMACEUTICAL CO., LTD, priority 2012, published 2015)

Legend:
Human V1b receptor [1] = target: T1, Human V1b receptor (Homo sapiens, UniProt P47901); assay: Measurement of V1b receptor antagonistic activity (AVP-induced Fluo-4 fluorescence, FDSS); type: cell-based; design: expressed in transfected cells; conditions: CHO cells stably expressing human V1b receptor; AVP 2.5 nmol/L; 30 minutes preincubation with test compound
T1 sequence (P47901 1-424): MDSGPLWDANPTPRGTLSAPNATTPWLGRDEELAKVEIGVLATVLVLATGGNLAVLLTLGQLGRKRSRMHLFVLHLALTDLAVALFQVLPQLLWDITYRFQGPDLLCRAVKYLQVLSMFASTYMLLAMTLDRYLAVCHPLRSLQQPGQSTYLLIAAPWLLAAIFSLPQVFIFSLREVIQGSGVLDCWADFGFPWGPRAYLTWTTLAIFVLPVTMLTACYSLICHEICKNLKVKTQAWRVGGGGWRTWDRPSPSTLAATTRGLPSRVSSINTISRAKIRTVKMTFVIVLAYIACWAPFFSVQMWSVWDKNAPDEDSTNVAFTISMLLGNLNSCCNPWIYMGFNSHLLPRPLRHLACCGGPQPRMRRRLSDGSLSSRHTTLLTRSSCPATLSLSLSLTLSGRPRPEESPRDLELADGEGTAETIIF
Protocol: CHO cells so modified as to express human V1b receptor in a stable manner were cultured in Ham's F-12 medium (containing 10% FBS and 0.5 mg/mL Geneticin). On the day before the test, seeding was conducted at a density of 20,000 cells/well in a 96-well poly-D-lysine coated black plate. On the day of the test, the culture medium was removed, and a loading solution (1×HBSS, 10 mmol/L HEPES, 0.1% bovine serum albumin, 1.25 mmol/L Probenecid, 0.02% Pluronic F-127, 1.5 μmol/L Fluo-4-AM, pH 7.4) was added to each well, followed by incubation in a CO2 incubator for an hour. After the incubation, the loading solution was removed. A test solution (1×HBSS, 10 mmol/L HEPES, 0.1% bovine serum albumin, 1.25 mmol/L Probenecid, pH 7.4) containing any one of test compounds was added to wells, followed by incubation in a CO2 incubator for 30 minutes. The test compound was serially diluted with DMSO so that it would have final concentrations of 0.1 nmol/L to 1 μmol/L at the time of assaying. After the incubation, fluorescence intensity levels were measured and AVP added by means of FDSS (Hamamatsu Photonics K.K.); AVP was added to give a final concentration of 2.5 nmol/L at the time of assaying. […] The fluorescence level in a well to which neither test compound nor AVP was added was defined as 0%, and the fluorescence level in a well to which only AVP was added and no test compound was added was defined as 100%. A dose-response curve was plotted from fluorescence levels after the addition of AVP in the presence of a test compound at various concentrations, and the 50% inhibitory concentration (IC50 value) of the compound was calculated.

Human V1b receptor [2] = target: T1, Human V1b receptor; assay: Binding test for V1b receptor ([3H]AVP displacement, crude membrane preparation); design: expressed in transfected cells; host or cells: 293FT cells (transient expression); conditions: [3H]AVP 0.4 to 1 nmol/L; membranes of 293FT cells transiently expressing human V1b receptor; room temperature, 60 minutes
Protocol: Human V1b receptor was transiently expressed in 293FT cells, which were then recovered and homogenated in a 15 mmol/L tris-hydrochloric acid buffer (pH 7.4 and containing 2 mmol/L magnesium chloride, 0.3 mmol/L ethylenediaminetetracetic acid, and 1 mmol/L glycol ether diaminetetraacetic acid). The resulting homogenate was centrifuged at 50,000×g at 4 ° C. for 20 minutes. The precipitate was resuspended in a 75 mmol/L tris-hydrochloric acid buffer (pH 7.4 and containing 12.5 mmol/L magnesium chloride, 0.3 mmol/L ethylenediaminetetracetic acid, 1 mmol/L glycol ether diaminetetraacetic acid, and 250 mmol/L sucrose) to give a crude membrane preparation, which was stored at −80° C. until the binding test was initiated. In the binding test, the crude membrane preparation was diluted with a 50 mmol/L tris-hydrochloric acid buffer (pH 7.4 and containing 10 mmol/L magnesium chloride and 0.1% bovine serum albumin) and mixed with each test compound and [^3H]AVP (final concentration: 0.4 to 1 nmol/L), followed by incubation at room temperature for 60 minutes. The test compound was serially diluted with DMSO so that it would have final concentrations of 0.01 nmol/L to […] at the time of mixing. After the incubation, the mixture was suction filtered through a GF/C filter that was preliminarily impregnated with 0.3% polyethyleneimine. The GF/C filter was dried and after adding a scintillator, the residual radioactivity on the filter was measured using TopCount (PerkinElmer Inc.). The radioactivity in the presence of unlabeled AVP at 10 μmol/L was defined as 0%, and the radioactivity in the absence of unlabeled AVP was defined as 100%. A dose-response curve was plotted from radioactivities in the presence of a test compound at various concentrations, and the 50% inhibitory concentration (IC50 value) of the test compound was calculated.

| IC50 (Human V1b receptor [1]) [nM] | IC50 (Human V1b receptor [2]) [nM] | SMILES |
| --- | --- | --- |
| 97 | 8.7 | CC(C)NC(=O)Cn1c(-c2cccc(Cl)c2)cc2cc(OCCCN3CCCCC3)ccc21 [Example B-1, 2-{2-(3-chlorophenyl)-5-[3-(piperidin-1-yl)propoxy]-1H-indol-1-yl}-N-isopropyl acetamide] |
| 21.9 | 4.9 | CC(C)NC(=O)Cn1c(-c2ccc(F)c(Cl)c2)cc2cc(OCCCN3CCCCC3)ccc21 [Example B-4, 2-{2-(3-chloro-4-fluorophenyl)-5-[3-(piperidin-1-yl)propoxy]-1H-indol-1-yl}-N-isopropyl acetamide] |
| 8 | 8.9 | CC(C)NC(=O)Cn1c(-c2ccc(F)c(Cl)c2)cc2cc(OCCCN3CCOCC3)ccc21 [Example B-5, 2-{2-(3-chloro-4-fluorophenyl)-5-[3-(morpholin-4-yl)propoxy]-1H-indol-1-yl}-N-isopropyl acetamide] |
| 21.4 | 5.3 | CC(C)NC(=O)Cn1c(-c2cccc(Cl)c2)cc2cc(OCCCN3CC4(COC4)C3)ccc21 [Example B-9, 2-{2-(3-chlorophenyl)-5-[3-(2-oxa-6-azaspiro[3.3]hept-6-yl)propoxy]-1H-indol-1-yl}-N-isopropyl acetamide] |
|  | 166 | COc1cc(-c2cc3cc(OCCCN4CCC[C@H]4C)ccc3n2CC(=O)NC(C)C)ccc1F [Example B-16, 2-[2-(4-fluoro-3-methoxyphenyl)-5-{3-[(2R)-2-methylpyrrolidin-1-yl]propoxy}-1H-indol-1-yl]-N-isopropyl acetamide] |
| 6 | 0.86 | CC(C)NC(=O)Cn1c(-c2ccc(F)c(Cl)c2)cc2cc(OC3CCN(C4CCCC4)CC3)ccc21 [Example B-17, 2-{2-(3-chloro-4-fluorophenyl)-5-[(1-cyclopentylpiperidin-4-yl)oxy]-1H-indol-1-yl}-N-isopropyl acetamide] |
|  | 20.1 | CC(C)NC(=O)Cn1c(-c2cccc(Cl)c2)cc2cc(CCCCN3CCCCC3)ccc21 [Example B-18, 2-{2-(3-chlorophenyl)-5-[4-(piperidin-1-yl)butyl]-1H-indol-1-yl}-N-isopropyl acetamide] |
|  | 387 | COc1cncc(-c2cc3cc(OCCCN4CCCCC4)ccc3n2CC(=O)NC(C)C)c1 [Example B-19, N-isopropyl-2-{2-(5-methoxypyridin-3-yl)-5-[3-(piperidin-1-yl)propoxy]-1H-indol-1-yl}acetamide] |
|  | 129 | COc1cccc(-c2cc3cc(OCCCN4CCCCC4)ccc3n2CC(=O)NC(C)C)c1 [Example B-20, N-isopropyl-2-{2-(3-methoxyphenyl)-5-[3-(piperidin-1-yl)propoxy]-1H-indol-1-yl}acetamide] |
| 50.8 | 21.4 | CC(C)NC(=O)Cn1c(-c2cccc(Cl)c2)cc2cc(OCCCN3CCCCC3)cnc21 [Example B-21, 2-{2-(3-chlorophenyl)-5-[3-(piperidin-1-yl)propoxy]-1H-pyrrolo[2,3-b]pyridin-1-yl}-N-isopropyl acetamide] |
|  | 47.1 | CC(C)NC(=O)Cn1c(-c2cccc(Cl)c2)cc2nc(OCCCN3CCCCC3)ccc21 [Example B-22, 2-{2-(3-chlorophenyl)-5-[3-(piperidin-1-yl)propoxy]-1H-pyrrolo[3,2-b]pyridin-1-yl}-N-isopropyl acetamide] |
|  | 375 | CC(C)NC(=O)Cn1c(=O)c2cc(OCCCN3CCCCC3)ccc2n1-c1cccc(Cl)c1 [Example D-1, 2-{1-(3-chlorophenyl)-3-oxo-5-[3-(piperidin-1-yl)propoxy]-1,3-dihydro-2H-indazol-2-yl}-N-isopropyl acetamide] |
|  | 522 | CC(C)NC(=O)Cn1c(-c2cccc(Cl)c2)cc2c1CCN(CCCCN1CCCCC1)C2 [Example E-1, 2-{2-(3-chlorophenyl)-5-[4-(piperidin-1-yl)butyl]-4,5,6,7-tetrahydro-1H-pyrrolo[3,2-c]pyridin-1-yl}-N-isopropyl acetamide] |
|  | 82 | CC(C)NC(=O)Cc1nc2cc(OCCCN3CCCCC3)ccn2c1-c1cccc(Cl)c1 [Example F-1, 2-{3-(3-chlorophenyl)-7-[3-(piperidin-1-yl)propoxy]imidazo[1,2-a]pyridin-2-yl}-N-isopropyl acetamide] |

More lines, now with the values behind:

| SMILES | IC50 (Human V1b receptor [1]) [nM] | IC50 (Human V1b receptor [2]) [nM] |
| --- | --- | --- |
| CC(C)NC(=O)Cn1c(-c2cccc(Cl)c2)nc2cc(OCCCN3CCCCC3)ccc21 [Example A-1, 2-{2-(3-chlorophenyl)-5-[3-(piperidin-1-yl)propoxy]-1H-benzimidazol-1-yl}-N-isopropyl acetamide] | 212 | 14.4 |
| COc1cc(-c2nc3cc(OCCCN4CCCCC4)ccc3n2CC(=O)NC(C)C)ccc1F [Example A-5, 2-{2-(4-fluoro-3-methoxyphenyl)-5-[3-(piperidin-1-yl)propoxy]-1H-benzimidazol-1-yl}-N-isopropyl acetamide] | 122 | 43.3 |
| COc1cc(-c2nc3cc(OCCCN4CCOCC4)ccc3n2CC(=O)NC(C)C)ccc1F [Example A-6, 2-{2-(4-fluoro-3-methoxyphenyl)-5-[3-(morpholin-4-yl)propoxy]-1H-benzimidazol-1-yl}-N-isopropyl acetamide] | 25.9 | 29.3 |
| COc1cc(-c2nc3cc(-c4cc(Cl)cc(CN(C)C)c4)ccc3n2CC(=O)NC(C)C)ccc1F [Example A-9, 2-[5-{3-chloro-5-[(dimethylamino)methyl]phenyl}-2-(4-fluoro-3-methoxyphenyl)-1H-benzimidazol-1-yl]-N-isopropyl acetamide] | 101 | 2.6 |
| CC(C)NC(=O)Cn1c(-c2ccc(F)c(Cl)c2)nc2cc(OCCCN3CCCCC3)ccc21 [Example A-11, 2-{2-(3-chloro-4-fluorophenyl)-5-[3-(piperidin-1-yl)propoxy]-1H-benzimidazol-1-yl}-N-isopropyl acetamide] | 88 |  |
| CC(C)NC(=O)Cn1c(-c2ccc(F)c(Cl)c2)nc2cc(OCCCN3CCCCCC3)ccc21 [Example A-13, 2-{5-[3-(azepan-1-yl)propoxy]-2-(3-chloro-4-fluorophenyl)-1H-benzimidazol-1-yl}-N-isopropyl acetamide] | 62.4 | 32.9 |
| CC(C)NC(=O)Cn1c(-c2ccc(F)c(Cl)c2)nc2cc(OCCCN3CCOCC3)ccc21 [Example A-14, 2-{2-(3-chloro-4-fluorophenyl)-5-[3-(morpholin-4-yl)propoxy]-1H-benzimidazol-1-yl}-N-isopropyl acetamide] | 53.5 | 12.5 |
| CC(C)NC(=O)Cc1c(-c2ccc(F)c(Cl)c2)nc2cc(OCCCN3CCCCC3)ccn12 [Example C-1, 2-{2-(3-chloro-4-fluorophenyl)-7-[3-(piperidin-1-yl)propoxy]imidazo[1,2-a]pyridin-3-yl}-N-isopropyl acetamide] |  | 10.7 |
| CC(C)NC(=O)Cc1c(-c2ccc(F)c(Cl)c2)nc2cc(OCCCN3CCOCC3)ccn12 [Example C-2, 2-{2-(3-chloro-4-fluorophenyl)-7-[3-(morpholin-4-yl)propoxy]imidazo[1,2-a]pyridin-3-yl}-N-isopropyl acetamide] |  | 9.9 |
